Source: patent US10117430B2, “Malononitrile compounds for controlling animal pests” (BASF SE, priority 2012, dated 2018)

What was measured:
Format in all cases: in vivo
[1] = test system: Silverleaf Whitefly (Bemisia argentifolii); assay: B.5 Silverleaf whitefly test on sprayed cotton plants; conditions: 72 h, in comparison with untreated controls, 3 days after treatment
Experimental: B.5 Silverleaf Whitefly (Bemisia argentifolii)
The active compounds were formulated in cyclohexanone as a 10,000 ppm solution supplied in 1.3 ml ABgene® tubes. These tubes were inserted into an automated electrostatic sprayer equipped with an atomizing nozzle and they served as stock solutions for which lower dilutions were made in 50% acetone:50% water (v/v). A nonionic surfactant (Kinetic®) was included in the solution at a volume of 0.01% (v/v). Cotton plants at the cotyledon stage (one plant per pot) were sprayed by an automated electrostatic plant sprayer equipped with an atomizing spray nozzle. The plants were dried in the sprayer fume hood and then removed from the sprayer. Each pot was placed into a plastic cup and 10 to 12 whitefly adults (approximately 3-5 days old) were introduced. The insects were collected using an aspirator and 0.6 cm, nontoxic Tygon® tubing (R-3603) connected to a barrier pipette tip. The tip, containing the collected insects, was then gently inserted into the soil containing the treated plant, allowing insects to crawl out of the tip to reach the foliage for feeding. Cups were covered with a reusable screened lid (150-micron mesh polyester screen PeCap from Tetko, Inc.). Test plants were maintained in a growth room at 25° C. and 20-40% relative humidity for 3 days, avoiding direct exposure to fluorescent light (24 hour photoperiod) to prevent trapping of heat inside the cup. Mortality was assessed 3 days after treatment, compared to untreated control plants.

[2] = test system: Rice brown plant hopper (Nilaparvata lugens); assay: B.11 Rice brown plant hopper test on sprayed rice seedlings; conditions: in comparison with untreated controls, after 72 hours
Experimental: B.11 Rice brown plant hopper (Nilaparvata lugens)
Rice seedlings were cleaned and washed 24 hours before spraying. The active compounds were formulated in 50:50 acetone:water (vol:vol) and 0.1% vol/vol surfactant (EL 620) was added. Potted rice seedlings were sprayed with 5 ml test solution, air dried, placed in cages and inoculated with 10 adults. Treated rice plants were kept at about 28-29° C. and relative humidity of about 50-60%. Percent mortality was recorded after 72 hours.

[3] = test system: Boll Weevil (Anthonomus grandis); assay: B.9 Boll weevil microtiter diet test, egg and larval mortality; conditions: 120 h, in comparison with untreated controls, egg and larval mortality after 5 days
Experimental: B.9 Boll Weevil (Anthonomus grandis)
(§1) For evaluating control of boll weevil (Anthonomus grandis) the test unit consisted of 24-well-microtiter plates containing an insect diet and 20-30 A. grandis eggs. The compounds were formulated using a solution containing 75% v/v water and 25% v/v DMSO. Different concentrations of formulated compounds were sprayed onto the insect diet at 20 μl, using a custom built micro atomizer, at two replications. After application, microtiter plates were incubated at about 23±1° C. and about 50±5% relative humidity for 5 days. Egg and larval mortality was then visually assessed.

[4] = test system: Orchid Thrips (Dichromothrips corbetti); assay: B.4 Orchid thrips floral-immersion test; conditions: 96 h, in comparison with untreated controls, after 4 days
Experimental: B.4 Orchid Thrips (Dichromothrips Corbetti)
Dichromothrips corbetti adults used for bioassay are obtained from a colony maintained continuously under laboratory conditions. For testing purposes, the test compound is diluted to a concentration of 300 ppm (wt compound: vol diluent) in a 1:1 mixture of acetone:water (vol:vol), plus 0.01% vol/vol Kinetic® surfactant. Thrips potency of each compound is evaluated by using a floral-immersion technique. Plastic petri dishes are used as test arenas. All petals of individual, intact orchid flowers are dipped into treatment solution and allowed to dry. Treated flowers are placed into individual petri dishes along with 10-15 adult thrips. The petri dishes are then covered with lids. All test arenas are held under continuous light and a temperature of about 28° C. for duration of the assay. After 4 days, the numbers of live thrips are counted on each flower, and along inner walls of each petri dish. The level of thrips mortality is extrapolated from pre-treatment thrips numbers.

[5] = test system: Cowpea Aphid (Aphis craccivora); assay: B.1 Cowpea aphid spray test on potted cowpea plants; conditions: in comparison with untreated controls, population reduction assessed after 24, 72 and 120 hours
Experimental: B.1 Cowpea Aphid (Aphis craccivora)
The active compounds were formulated in 50:50 (v/v) acetone:water. The test solution was prepared at the day of use. Potted cowpea plants colonized with approximately 100-150 aphids of various stages were sprayed after the pest population has been recorded. Population reduction was assessed after 24, 72, and 120 hours.

[6] = test system: Yellow Fever Mosquito (Aedes aegypti); assay: whole plant or invertebrate; conditions: 48 h, in comparison with untreated controls, larval mortality after 2 days
Experimental: B.12 Yellow Fever Mosquito (Aedes aegypti)
For evaluating control of yellow fever mosquito (Aedes aegypti) the test unit consisted of 96-well-microtiter plates containing 200 μl of tap water per well and 5-15 freshly hatched A. aegypti larvae. The compounds or mixtures were formulated using a solution containing 75% water and 25% DMSO. Different concentrations of formulated compounds or mixtures were sprayed onto the insect diet at 2.5 μl, using a custom built micro atomizer, at two replications. After application, microtiter plates were incubated at 28±1° C., 80±5% relative humidity for 2 days. Larval mortality was then visually assessed.

[7] = test system: Vetch Aphid (Megoura viciae); assay: B.7 Vetch aphid test on broad bean leaf disks; conditions: foliar, 120 h, in comparison with untreated controls, 5 days
Experimental: B.7 Vetch Aphid (Megoura viciae)
For evaluating control of vetch aphid (Megoura viciae) through contact or systemic means the test unit consisted of 24-well-microtiter plates containing broad bean leaf disks. The compounds were formulated using a solution containing 75% v/v water and 25% v/v DMSO. Different concentrations of formulated compounds were sprayed onto the leaf disks at 2.5 μl, using a custom built micro atomizer, at two replications. After application, the leaf disks were air-dried and 5-8 adult aphids placed on the leaf disks inside the microtiter plate wells. The aphids were then allowed to suck on the treated leaf disks and incubated at about 23±1° C. and about 50±5% relative humidity for 5 days. Aphid mortality and fecundity was then visually assessed.

[8] = test system: Green Peach Aphid (Myzus persicae); assay: B.3 Green peach aphid systemic test, artificial diet under membrane; conditions: 72 h, concentration of the test solution 2500 mg/L, 3 days
Text: B.3 Green Peach Aphid (Myzus persicae)
For evaluating control of green peach aphid (Myzus persicae) through systemic means the test unit consisted of 96-well-microtiter plates containing liquid artificial diet under an artificial membrane. The compounds were formulated using a solution containing 75% v/v water and 25% v/v DMSO. Different concentrations of formulated compounds were pipetted into the aphid diet, using a custom built pipetter, at two replications. After application, 5-8 adult aphids were placed on the artificial membrane inside the microtiter plate wells. The aphids were then allowed to suck on the treated aphid diet and incubated at about 23±1° C. and about 50±5% relative humidity for 3 days. Aphid mortality and fecundity was then visually assessed.

[9] = test system: Green Soldier Stink Bug (Nezara viridula); assay: B.15 Green soldier stink bug test on sprayed soybean pods; conditions: 120 h, in comparison with untreated controls, after 5 days
Experimental: B.15 Green Soldier Stink Bug (Nezara viridula)
The active compound is dissolved at the desired concentration in a mixture of 1:1 (vol:vol) distilled water:aceteone. Surfactant (Kinetic HV) is added at a rate of 0.01% (vol/vol). The test solution is prepared at the day of use. Soybean pods were placed in microwavable plastic cups lined with moist filter paper and inoculated with ten 3rd instar N. viridula. Using a hand atomizer, an approximately 2 ml solution is sprayed into each cup. Treated cups were kept at about 28-29° C. and relative humidity of about 50-60%. Percent mortality was recorded after 5 days.

[10] = test system: Mediterranean Fruitfly (Ceratitis capitata); assay: B.2 Mediterranean fruitfly microtiter diet test, egg and larval mortality; conditions: 120 h, in comparison with untreated controls, egg and larval mortality after 5 days
Experimental: B.2 Mediterranean Fruitfly (Ceratitis capitata)
as §1, with “Mediterranean fruitfly (Ceratitis capitata)” for “boll weevil (Anthonomus grandis)”, “microtiter” for “24-well-microtiter”, “50-80 C. capitata” for “20-30 A. grandis”, “5” for “20”, “28±1°” for “23±1°”, “80±5%” for “50±5%”

C#Cc1ccc(C(C#N)(C#N)Cc2ccc(C(F)(F)F)nc2)cc1 [II-1]
≥ 75%: mortality at 500 ppm [1] | mortality at 300 ppm [2] | mortality at 2500 ppm [3]

N#CC(C#N)(Cc1ccc(C(F)(F)F)nc1)c1ccc(Cl)cc1 [II-2]
≥ 75%: mortality at 500 ppm [1] | mortality at 2500 ppm [3] | mortality at 500 ppm [4] | mortality at 500 ppm [5] | mortality at 2500 ppm [6]

N#CC(C#N)(Cc1ccc(C(F)(F)F)cn1)c1ccccc1 [II-4]
≥ 75%: mortality at 2500 ppm [7] | mortality at 500 ppm [1] | mortality at 2500 µg/mL [8] | mortality at 300 ppm [2] | mortality at 2500 ppm [3] | mortality at 500 ppm [4] | mortality at 500 ppm [9] | mortality at 500 ppm [5] | mortality at 2500 ppm [6]

N#CC(C#N)(Cc1ccc(Br)cn1)c1ccc(F)cc1 [II-10, 2-[(5-bromo-2-pyridyl)methyl]-2-(4-fluorophenyl)propanedinitrile]
≥ 75%: mortality at 300 ppm [2] | mortality at 2500 ppm [3] | mortality at 500 ppm [4]

N#CC(C#N)(Cc1ccc(F)cn1)c1ccc(F)cc1 [II-12]
≥ 75%: mortality at 500 ppm [1]

N#CC(C#N)(Cc1ccc(C(F)(F)F)nn1)c1ccccc1 [II-13]
≥ 75%: mortality at 500 ppm [1] | mortality at 2500 µg/mL [8] | mortality at 2500 ppm [3] | mortality at 2500 ppm [6]

N#CC(C#N)(Cc1ccc(C(F)(F)F)nn1)c1cccc(F)c1 [II-15]
≥ 75%: mortality at 500 ppm [1] | mortality at 2500 µg/mL [8] | mortality at 2500 ppm [3] | mortality at 500 ppm [4] | mortality at 500 ppm [5] | mortality at 2500 ppm [6]

N#CC(C#N)(Cc1ncc(C(F)(F)F)cn1)c1cccc(F)c1 [II-18]
≥ 75%: mortality at 2500 ppm [7] | mortality at 500 ppm [1] | mortality at 2500 µg/mL [8] | mortality at 2500 ppm [3] | mortality at 500 ppm [4] | mortality at 2500 ppm [6]

N#CC(C#N)(Cc1cnc(C(F)(F)F)nc1)c1cccc(F)c1 [II-21]
≥ 75%: mortality at 2500 ppm [7] | mortality at 500 ppm [1] | mortality at 300 ppm [2] | mortality at 2500 ppm [3] | mortality at 500 ppm [4] | mortality at 500 ppm [9] | mortality at 500 ppm [5] | mortality at 2500 ppm [6]

Cc1cccc(C(C#N)(C#N)Cc2ccc(C(F)(F)F)nc2)c1 [II-22]
≥ 75%: mortality at 300 ppm [2]

N#CC(C#N)(Cc1cnc(C(F)(F)F)nc1)c1ccc(F)cc1 [II-23]
≥ 75%: mortality at 2500 ppm [7] | mortality at 500 ppm [1] | mortality at 2500 ppm [10] | mortality at 2500 µg/mL [8] | mortality at 300 ppm [2] | mortality at 2500 ppm [3] | mortality at 500 ppm [4] | mortality at 500 ppm [5] | mortality at 2500 ppm [6]

N#CC(C#N)(Cc1ccc(C(F)(F)F)nc1)c1ccccc1F [II-24]
≥ 75%: mortality at 500 ppm [1] | mortality at 300 ppm [2] | mortality at 2500 ppm [3] | mortality at 500 ppm [4] | mortality at 2500 ppm [6]

N#CC(C#N)(Cc1cnc(C(F)(F)F)cn1)c1ccc(F)cc1 [II-27]
≥ 75%: mortality at 2500 ppm [7] | mortality at 500 ppm [1] | mortality at 2500 ppm [10] | mortality at 300 ppm [2] | mortality at 2500 ppm [3] | mortality at 500 ppm [4] | mortality at 2500 ppm [6]

N#CC(C#N)(Cc1ccccn1)c1ccccc1 [II-29]
≥ 75%: mortality at 2500 ppm [6]

N#CC(C#N)(Cc1ccc(C(F)(F)F)cn1)c1ccccc1F [II-36]
≥ 75%: mortality at 500 ppm [1] | mortality at 300 ppm [2] | mortality at 2500 ppm [3] | mortality at 2500 ppm [6]

Cc1cccc(C(C#N)(C#N)Cc2ccc(C(F)(F)F)cn2)c1 [II-37]
≥ 75%: mortality at 2500 ppm [6]

COc1cccc(C(C#N)(C#N)Cc2ccc(C(F)(F)F)cn2)c1 [II-39]
≥ 75%: mortality at 2500 µg/mL [8]

N#CC(C#N)(Cc1ccc(C(F)(F)F)nc1)c1cc(F)cc(C(F)(F)F)c1 [II-46]
≥ 75%: mortality at 500 ppm [4] | mortality at 2500 ppm [6]

Cc1cc(C)cc(C(C#N)(C#N)Cc2ccc(C(F)(F)F)cn2)c1 [II-47]
≥ 75%: mortality at 500 ppm [5] | mortality at 2500 ppm [6]

N#CC(C#N)(Cc1ccc(C(F)(F)F)cn1)c1cccc(F)c1F [II-49]
≥ 75%: mortality at 300 ppm [2] | mortality at 500 ppm [4] | mortality at 500 ppm [9]

N#CC(C#N)(Cc1ccc(C(F)(F)F)nc1)c1cc(C(F)(F)F)cc(C(F)(F)F)c1 [II-54]
≥ 75%: mortality at 2500 ppm [6]

N#CC(C#N)(Cc1ccc(C(F)(F)F)cn1)c1cc(C(F)(F)F)cc(C(F)(F)F)c1 [II-60]
≥ 75%: mortality at 2500 ppm [6]

Cc1cccc(CC(C#N)(C#N)c2cc(F)c(F)c(F)c2)n1 [II-65]
≥ 75%: mortality at 300 ppm [2] | mortality at 2500 ppm [3] | mortality at 500 ppm [4] | mortality at 500 ppm [9] | mortality at 2500 ppm [6]

N#CC(C#N)(Cc1c(Cl)cncc1Cl)c1cc(F)c(F)c(F)c1 [II-66]
≥ 75%: mortality at 2500 ppm [7] | mortality at 2500 ppm [6]
